From PMC12423841 (ACS Omega, 2025)

How the values were obtained:
[1] = tested on: VSV pseudotyped with the SARS-CoV-2 Wuhan-Hu-1 S; test: organism not typed; type: cell-based; conditions: for antiviral activity (reduction of viral entry) versus cellular toxicity: VSVΔG-SWh in VeroE6 cells, various concentrations; for EC50: Vero C1008, read-out: EC50 (concentration reducing infection by VSV pseudotyped with the SARS-CoV-2 Wuhan-Hu-1 S by 50%)
in vitro = conditions: African green monkey
[2] = tested on: SARS-CoV-2 in A549-ACE2 cells; type: cell-based; conditions: 24 h, compounds 20 μM, remdesivir 30 μM
[3] = tested on: VSV pseudotyped with SARS-CoV-1 Spike; type: cell-based
[4] = tested on: SARS-CoV-2 in VeroE6-TMPRSS2 cells; type: cell-based; conditions: 24 h, compounds 20 μM, remdesivir 30 μM
[5] = tested on: VSV pseudotyped with SARS-CoV-2 Delta Spike; type: cell-based; conditions: dose response
[6] = tested on: VSV pseudotyped with SARS-CoV-2 Omicron BA.1 Spike; type: cell-based; conditions: dose response

Row | Compound | antiviral activity (reduction of viral entry) versus cellular toxicity [1] | EC50 [1] [µM] | CC50 (in vitro) [µM] | virus production after SARS-CoV-2 infection [2] | inhibition of infection by VSV pseudotyped with SARS-CoV-1 Spike [3] | virus production after SARS-CoV-2 infection [4] | inhibition of infection by VSV pseudotyped with SARS-CoV-2 Wuhan Spike ([1]; dose response) | inhibition of infection by VSV pseudotyped with SARS-CoV-2 Delta Spike [5] | inhibition of infection by VSV pseudotyped with SARS-CoV-2 Omicron BA.1 Spike [6]
1 | C=C1CC[C@H](O)C/C1=C/C=C1\CCC[C@]2(C)[C@@H]([C@H](C)CCCC(C)(C)O)CC[C@@H]12 [calcifediol] | antiviral activity could not be separated from toxicity | 6.13 ± 3.52 | 16.8 ± 0.5 | – | – | – | – | – | –
2 | C=C1CC[C@H](O)C/C1=C/C=C1\CCC[C@]2(C)[C@@H]([C@H](C)CCCC(C)C)CC[C@@H]12 [cholecalciferol] | showed antiviral activity in the absence of toxicity | 14.8 ± 4.11 | 83.7 ± 6.12 | – | – | – | – | – | –
3 | CC(C)c1c(CN(C)C(C)Cc2ccccc2)n(C)n(-c2ccccc2)c1=O (stereo not shown) [famprofazone] | showed antiviral activity in the absence of toxicity | 7.64 ± 4.55 | 79 ± 2.75 | statistically significant reduction of virus production | – | – | – | – | –
4 | CCCCCCCCc1ccc(CCC(N)(CO)CO)cc1 [fingolimod] | showed antiviral activity in the absence of toxicity | 7.12 ± 2.25 | 20.4 ± 19.6 | statistically significant reduction of virus production | dose-dependent reduction | significant reduction | dose-dependent reduction | dose-dependent reduction | dose-dependent reduction
5 | CC[N+](C)(CC)CCOC(=O)C(O)(c1ccccc1)C1CCCCC1 (stereo not shown) [oxyphenomium] | could not be observed | – | – | – | – | – | – | – | –
6 | CCC(CC)COC(=O)[C@H](C)N[P@](=O)(OC[C@H]1O[C@@](C#N)(c2ccc3c(N)ncnn23)[C@H](O)[C@@H]1O)Oc1ccccc1 [remdesivir] | – | – | – | reduced viral replication significantly | – | reduced viral replication significantly | – | – | –
